Data reported in patent publication US6953783B1, “Modulation of gene expression by combination therapy” (MethylGene, Inc., priority 1998, dated 2005).
d = 2'-deoxy (DNA); m = 2'-O-methyl

How the values were obtained:
p16 tumor suppressor = test: Reactivation of p16 expression in T24 cells, oligonucleotide and/or 5-aza-dC (IP/Western, densitometry); assay type: cell-based, human; conditions: densitometry of FIG. 14 Western, 40 nM oligonucleotide and/or 0.1 μM 5-aza-dC
Experimental: For this purpose, one day before transfection, T24 cells (ATCC No. HTB-4) were plated onto 10 cm plates at 4×10^5 cells/dish. At the time of transfection, cells were washed with phosphate buffered saline (PBS) and 5 ml of optimem media (Gibco-BRL) containing 6.25 μl/ml lipofectin transfection reagent (Gibco-BRL) was added. […] These oligonucleotides were chemically modified as follows: A equals 2'-deoxyriboadenosine; C equals 2'-deoxyribocytidine; G equals 2'-deoxyriboguanosine; T equals 2'-deoxyribothymidine; Aequals riboadenosine; U equals uridine; C equals ribocytidine; and G equals riboguanosine. The underlined bases were 2'-methoxyribose substituted nucleotides. Non-underlined bases indicate deoxyribose nucleosides. The backbone of each oligonucleotide consisted of a phosphorothioate linkage between adjoining nucleotides. The oligonucleotides were diluted to the desired concentration from a 0.1 mM stock solution in the transfection media. After a four-hour incubation at 37° C. in a 5% CO2 incubator, the plates were washed with PBS and 10 ml of fresh cell culture media was added. Following an additional two-hour incubation at 37° C., freshly prepared 5-aza-2'-deoxycytidine was added to the tissue culture medium. Cells were transfected for a total of three days and split every other day to ensure optimal transfection conditions. At the indicated time points, cells were harvested by trypsinization and pelleted by centrifugation at 1100 rpm and 4° C. for five minutes. The cell pellet was resuspended in PBS and counted on a Coulter Particle Counter to determine the total cell number. Following a second centrifugation, the PBS was aspirated from the cell pellet and the pellet was frozen at 70° C. […] The lysed cells were incubated on ice for 10 minutes and cell particulate matter was removed by centrifugation at 10,000 rpm for 10 minutes at 4° C. The protein concentration for each sample was determined using the Bio Rad Protein Assay and 600 μg of protein was used for each immunoprecipitation. […]

[1] = tested on: Colo 205 human colon cancer cells; test: Colo 205 tumor growth in nude mice; assay type: in vivo, BALB/c nude mice; conditions: i.v. daily for seven days; 0.5 mg/kg MG98 and/or 0.1 mg/kg 5-aza-dC
Experimental: Eight to ten week old female BALB/c nude mice (Taconic Labs, Great Barrington, N.Y.) were injected subcutaneously in the flank area with 2×10^6 preconditioned Colo 205 human colon cancer cells (ATCC No. CCL-222). Preconditioning of these cells was done by a minimum of three consecutive tumor transplantations in the same strain of nude mice. Subsequently, tumor fragments of approximately 30 mgs were excised and implanted subcutaneously in mice, in the left flank area under Forene anesthesia (Abbott Labs., Geneva, Switzerland). […] Tumor volume was calculated according to standard methods every second day post infusion (see methods, e.g., in Meyer et al. (1989) Int. J. Cancer 43: 851-856).

human DNA MeTase mRNA = test: Antisense inhibition of DNA MeTase mRNA (screen of phosphorothioate oligonucleotides); assay type: cell-based
From the text: As shown in FIG. 1 the two […] regions were identified to be highly sensitive to antisense inhibition were targeted by MG88 having the sequence [NT] ID NO:1) (this oligonucleotide is targeted to the […] 5'UTR at nucleotides 532 to 513) and MG98 having the sequence [NT] ID NO:2) (this oligonucleotide is targeted to the […] 3'UTR at nucleotides 5218 to 5199). These oligonucleotides were chemically modified as follows: A equals 2'-deoxyriboadenosine; C equals 2'-deoxyribocytidine; G equals 2'-deoxyriboguanosine; T equals 2'-deoxyribothymidine; A equals riboadenosine; U equals uridine; C equals ribocytidine; and G equals riboguanosine. The underlined bases were 2'-methoxyribose substituted nucleotides. Non-underlined bases indicate deoxyribose nucleosides. The backbone of each oligonucleotide consisted of a phosphorothioate linkage between adjoining nucleotides.

[2] = mammals; cited from earlier work
thymidylate synthase = conditions: T24 cells; 25 or 50 nM, 72 hours
From the text: After treatment, the cells were lysed and analyzed by Western blotting analysis for thymidylate synthase protein levels using a thymidylase synthase specific antibody (commercially available from Chemicon Int., Temecula, Calif.).

DNA MeTase protein [3] = test: DNA MeTase protein levels by Western blotting in T24 cells; assay type: cell-based, human; conditions: 20, 40 or 80 nM with lipofectin, 4 h on day 0 and day 1, harvest day 2
From the text: (§1) MG88 was next tested for an ability to inhibit DNA MeTase mRNA in two human neoplastic cells, A549 (human non-small cell lung carcinoma cells) and T24 (human bladder cancer cells). […] MG208 was modified as follows: A equals 2′-deoxyriboadenosine; C equals 2′-deoxyribocytidine; G equals 2′-deoxyriboguanosine; T equals 2′-deoxyribothymidine; A equals riboadenosine; U equals uridine; C equals ribocytidine; and G equals riboguanosine. The underlined bases were 2′-methoxyribose substituted nucleotides. Non-underlined bases indicate deoxyribose nucleosides. The backbone of MG208 consisted of a phosphorothioate linkage between adjoining nucleotides.
The MG88 and MG208 oligonucleotides were diluted to the desired concentration from a 0.1 mM stock solution in the transfection media. Cells were exposed to oligonucleotide plus lipofectin (or lipofectin only) for four hours on day 0 and four hours on day 1 (after each four hour treatment, cells were returned to complete media). On day 2 (i.e., 48 hours after the first treatment on day 0), cells were harvested, whole cell lysates were prepared, and DNA MeTase protein levels were analyzed by Western blotting analysis with a DNA MeTase-specific rabbit polyclonal antibody (generated according to standard techniques of a glutathione S -transferase fusion protein containing the first 10 kDa amino terminus from DNA methyltransferase protein). […] Equal loading of all lanes was confirmed by blotting for α-actin protein levels with an actin-specific rabbit polyclonal antibody (commercially available from Santa Cruz Biotech., Santa Cruz, Calif.).
(§2) Next, to determine whether de novo methylation and silencing of the re-expressed p16^ink4A gene occurred when DNA MeTase returned to normal levels, T24 cells were transfected for 10 consecutive days with either 40 or 75 nM or MG88 or MG208. […] Cell lysates of the T24 cells transfected for ten days were analyzed by Western blotting analysis for expression of DNA MeTase protein,p16^ink4A protein, and actin protein (as a control for equal loading) 3, 5, and 7 days after MG88 transfection.

T24 cells = test: T24 cell proliferation during and after treatment (cell counting); assay type: cell-based, human; conditions: 75 nM, days 0-5, relative to lipofectin
From the text: To study the effect of specific inhibition of DNA MeTase on cell growth, cellular proliferation rates were monitored both during the treatment and post treatment periods to determine the duration of the effect. […] During and following treatment, cells were counted. […] To determine whether the transient re-expression of p16^ink4A and growth-inhibitory effects induced by short term treatment with MG88 were due to the expansion of a less affected (less demethylated) population of cells within the treated population, or to rapid inactivation of p16^ink4A after MG88 withdrawal, single cell clones were isolated after treatment. Several MG88 clones were, in fact, p16^ink4A negative, confirming that the MG88 treatment produced a mixed population of p16^ink4A positive and negative cells.

DNA MeTase protein [4] = test: DNA MeTase protein levels by Western blotting in A549 cells; assay type: cell-based, human; conditions: 20, 40 or 80 nM with lipofectin, 4 h on day 0 and day 1, harvest day 2
From the text: as §1
The MG88 and MG208 oligonucleotides were diluted to the desired concentration from a 0.1 mM stock solution in the transfection media. Cells were exposed to oligonucleotide plus lipofectin (or lipofectin only) for four hours on day 0 and four hours on day 1 (after each four hour treatment, cells were returned to complete media). On day 2 (i.e., 48 hours after the first treatment on day 0), cells were harvested, whole cell lysates were prepared, and DNA MeTase protein levels were analyzed by Western blotting analysis with a DNA MeTase-specific rabbit polyclonal antibody (generated according to standard techniques of a glutathione S -transferase fusion protein containing the first 10 kDa amino terminus from DNA methyltransferase protein). […]

p21^WAF1 = p21^WAF1 protein levels by Western blotting in T24 cells; assay type: cell-based, human; conditions: 40 nM or 75 nM, 24 or 48 hours
Experimental: Another member of the cyclin-dependent kinase inhibitor (CDKI) family, p21^WAF1, inhibits a wide range of cyclin/CDK complexes involved in G1 and S phase progression (Tam et al. (1994) Cancer Res. 54: 5816-5820; Baghdassarian and French (1996) Hematol. Cell Ther. 88: 313-323; Gotz et al. (1996) Oncogene 13: 391-398). […] To do this, DNA MeTase, p21^WAF1, and α-actin protein levels were measured by Western blotting analysis in T24 cells that had been treated for either 24 hours (i.e., one 4 hour transfection time) or 48 hours (i.e., two […] transfections 24 hours apart) with either 40 nM or 75 nM of either MG88 or MG208.
T24 cells were also treated for 24 hours (i.e., four hour transfection) with lipofectin only, or lipofectin plus 20, 40, or 80 nM of MG88 or MG208. After treatment, cell lysates were prepared and analyzed by Western blotting analysis with α-actin-specific antibody or p21-specific antibody.

p16^ink4A promoter = test: Methylation specific PCR and bisulfite genomic sequencing of the p16^ink4A promoter in T24 cells; assay type: cell-based, human; conditions: T24 cells
Experimental: To identify changes in the methylation status of the p16^ink4A promoter induced by MG88 treatment, methylation specific PCR (MSP) and bisulfite genomic sequencing was performed as previously described ([…] et al. (1994) Nat. Gen. 8: 27-32; Frommer et al. (1991) Proc. Nat. Acad. Sci. USA 89: […]). […] Briefly, the Oncor p16 detection system was used (commercially available from Oncor, Gaithersburg, Md.). PCR was performed in a total volume of 25 μl under the following conditions: 100 ng bisulfate-treated DNA (Oncor),10 mM Tris-HCl, pH 8.3, […], 1.5 mM MgCl2, 250 μM dNTPs, 80 ng of each of the following primers ([NT] sense (SEQ ID NO: 79) and [NT] antisense (SEQ ID NO: 80)) and 1 unit of AmpliTaq Gold (Perkin-Elmer). The denaturation cycle was 95° C. for 12 min followed by 35 cycles at 95° C. for 45 seconds, 60° C. for 45 seconds, and 72° C. for 60 seconds, and an elongation cycle of 72° C. for 10 minutes. the PCR product (5 μl) was analyzed on a 2% agarose gel. The unmethylated (U) and demethylated (D) primers (commercially available from Oncor) were used at the same conditions as the specific primers.

p16^ink4A protein = p16^ink4A protein by immunoprecipitation and Western blotting in T24 cells; assay type: cell-based, human; conditions: 40 nM or 75 nM, 4 h each day up to 10 days
From the text: The cyclin-dependent kinase inhibitor (CDKI) p16^ink4A regulates the transition from G1 to S-phases of the cell cycle (Serrano et al. (1993) Nature 366: 704-707). Inactivation of p16^ink4A is one of the most frequently observed abnormalities in human cancer (Serrano et al., supra). Transcriptional inactivation and associated hypermethylation of the p16^ink4A promote region have also been observed in virtually all types of cancer (Gonzales-Zulueta et al. (1995) Cancer Res. 55: 4531-4535; Merlo et al. (1995) Nat. Med. 7: 686-692; Costello et al. (1996) Cancer Res. 56: 2405-2410; Lo et al., Cancer Res. 56: 2721-2725). To investigate the effect of specifically reducing cellular DNA MeTase levels on the expression and methylation status of a silenced p16^ink4A gene, T24 human bladder cancer cells that contain a hypermethylated and silenced p16^ink4A gene were transfected with 40 nM or 75 nM MG88 or control oligonucleotide MG208 with 6.25 μg/ml lipofectin for four hours each day for up to 10 consecutive days. On days 3, 5, 8, and 10, p16^ink4A protein levels were then analyzed by immunoprecipitation followed by Western blotting analysis with a p16^ink4A protein-specific antibody (PharMingen). HeLa cells were used as a positive (+) control for p16^ink4A protein expression.
as §2

5′-UUCATG TCA GCC AAG GCC AC-3′ [MG98]
p16 expression, Percentage of HeLa Cell Control (p16 tumor suppressor): 4
tumor volume [1]: showed tumor volume increase
IC50 (human DNA MeTase mRNA): 45 nM

Nc1ncn([C@@H]2O[C@H](CO)[C@@H](O)[C@H]2O)c(=O)n1 [5-azaC, 5-aza-cytidine]
toxicity of threshold concentrations necessary to inhibit DNA methyltransferase activity [2]: toxic to mammals

5′ GUCUTAAGCTCAACATUCUA 3′ [MG2606, reference compound]
thymidylate synthase protein level compared to lipofectin only (thymidylate synthase): not

5′-UUAATG TAA CCT AAG GUCAA-3′ (DNA UUAATGTAACCTAAGGUCAA; sugars from the 5' end m4 d12 m4, all phosphorothioate, methylation of C not given here) [MG207, negative control oligonucleotide]
p16 expression, Percentage of HeLa Cell Control (p16 tumor suppressor): 1

5′-AACGAT CAG GAC CCT TGUCC-3′ (DNA AACGATCAGGACCCTTGUCC; sugars from the 5' end m4 d12 m4, all phosphorothioate, methylation of C not given here) [MG208, mismatch control oligonucleotide, reference compound]
reduction in DNA MeTase protein levels (DNA MeTase protein [3]): not
cell proliferation during treatment (T24 cells): only minimal growth inhibition
reduction in DNA MeTase protein levels (DNA MeTase protein [4]): not
p21^WAF1 protein level (p21^WAF1): neither lipofectin nor MG208 had an effect
p16^ink4A methylation status (bisulfite sequencing) (p16^ink4A promoter; days 3 and 5 of treatment): no effect on p16^ink4A methylation status
demethylation of the p16^ink4A promoter region (MSP) (p16^ink4A promoter; treated 3, 5, 9 or 10 days): no effect on methylation of the p16^ink4A gene
induction of expression of p16^ink4A protein (p16^ink4A protein): not detected

Nc1ncn([C@H]2C[C@H](O)[C@@H](CO)O2)c(=O)n1 [5-aza-dC, 5-aza-2′-deoxycytidine]
p16 expression, Percentage of HeLa Cell Control (p16 tumor suppressor): 11
tumor volume [1]: showed less tumor volume increase
toxicity of threshold concentrations necessary to inhibit DNA methyltransferase activity [2]: toxic to mammals

5′ UUCATAACCTCAGCATUGUC 3′ [MG2605]
thymidylate synthase protein level compared to lipofectin only (thymidylate synthase): diminished levels of thymidylate synthase protein
